The source of these data is patent US12590062B2, “PD-1/PD-L1 inhibitors” (Gilead Sciences, Inc., priority 2017, dated 2026).

One test has as its target PD-1/PD-L1 (Homo sapiens, UniProt Q9NZQ7). The experiment in a line: PD-1/PD-L1 biochemical protein-protein interaction assay (ALPHA). Conditions: 0.3 nM His tagged PD-L1, 2.5 nM biotinylated Fc-PD-1, 60 minutes at 25° C., read-out: IC50 PD-L1-PD-1 Alpha IC50-mono PD-L1-fcP-D1. Format: binding. In short, it runs like this: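 ALPHA bead proximity assay of extracellular domains: 0.3 nM His-PD-L1 with 2.5 nM biotinylated Fc-PD-1 in 25 mM Hepes pH 7.4, 150 mM NaCl, 3.4 mM EDTA, 0.005% Tween 20, 0.01% BSA, 60 min at 25 °C. Anti-His acceptor and streptavidin donor beads added; IC50 from four-parameter fit of signal loss.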

A further test addresses T1, PD-1/PD-L1 interaction (Homo sapiens, UniProt Q9NZQ7).
T1 construct: expressed in transfected cells; host or cells: CHO cells (aAPC-PD-L1) co-cultured with Jurkat cells overexpressing PD-1 and an NFAT-luciferase reporter
Put plainly: PD-1/PD-L1 NFAT reporter co-culture assay. Format: cell-based. Conditions: Jurkat PD-1 NFAT-luciferase cells co-cultured with aAPC-PD-L1 CHO cells, 6 hrs at 37° C.; read-out: EC50 NFAT Luciferase. In short, it runs like this:
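CHO aAPC-PD-L1 seeded overnight; PD-1/NFAT-luc Jurkat + cpd in RPMI 1640, 2% FBS added at once; 6 h, 37 °C; ONE-Glo luminescence; EC50, 4-parameter fit.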

The next test has as its target T2, PD-L1 (Homo sapiens, UniProt Q9NZQ7).
T2 construct: determine if they can specifically dimerize the extracellular domains of PD-L1
The experiment in a line: PD-L1/PD-L1 dimerization biochemical protein-protein interaction assay (ALPHA). It counts as binding. Conditions: compound-induced PD-L1 dimerization, head prints '1 nM' (0.5 nM His-tagged PD-L1 and 0.5 nM FLAG-tagged PD-L1), read-out: AC50 PDL1 Dimer Alpha 1 nM. The method in brief:
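ALPHA proximity assay of compound-induced dimerization of 0.5 nM His-tagged and 0.5 nM FLAG-tagged PD-L1 extracellular domains in Hepes pH 7.4 buffer, 2 h at 25 °C. Anti-His acceptor then anti-FLAG donor beads, 60 min each; AC50 from four-parameter fit.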

T1 sequence (Q9NZQ7 19-290): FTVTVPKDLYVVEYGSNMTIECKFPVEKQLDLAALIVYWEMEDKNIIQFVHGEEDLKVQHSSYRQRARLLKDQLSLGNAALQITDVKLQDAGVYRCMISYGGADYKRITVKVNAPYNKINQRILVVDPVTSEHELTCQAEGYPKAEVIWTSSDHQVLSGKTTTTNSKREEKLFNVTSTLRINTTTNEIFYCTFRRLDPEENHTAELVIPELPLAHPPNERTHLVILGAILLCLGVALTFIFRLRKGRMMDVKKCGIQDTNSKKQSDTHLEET
Chain of PD-1/PD-L1 (Q9NZQ7 19-238 limits assumed): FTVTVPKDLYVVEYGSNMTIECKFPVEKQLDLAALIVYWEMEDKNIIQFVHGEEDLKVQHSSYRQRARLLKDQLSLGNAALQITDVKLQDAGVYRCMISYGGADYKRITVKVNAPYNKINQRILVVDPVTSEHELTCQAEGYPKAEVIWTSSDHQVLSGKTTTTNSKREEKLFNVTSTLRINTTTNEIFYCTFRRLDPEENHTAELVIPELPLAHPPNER
T2 sequence (Q9NZQ7 19-238 limits assumed): as above
T2 sequence (Q9NZQ7 19-238 limits assumed): as above

The IC50 is the point on the concentration scale where inhibition reaches its midpoint. What is called EC50 is the concentration that produces a half-maximal response. One may read the AC50 as the midpoint of the concentration-response curve, whichever way the signal moves. Turning to `Cc1c(COc2cc(OCc3cncc(C#N)c3)c(CNCCO)cc2Cl)cccc1-c1cccc(-c2ccc(CN(C)C)cc2)c1Br` [Example 450], the half-maximal inhibitory concentration (IC50) on PD-1/PD-L1 is 1.56 nM. For the same compound, the concentration for a half-maximal effect (EC50) at PD-1/PD-L1 interaction came to 277 nM. Further, the AC50 at PD-L1 came out at 110 nM.

`COc1nc(O[C@H]2CCc3c(-c4cccc(-c5cnc6c(CN7CC8(CNC(=O)C8)C7)cn(C)c6n5)c4Cl)cccc32)c(Cl)cc1CN1CC[C@@H](C(=O)O)C1` [Example 525]: at PD-1/PD-L1, the IC50 is 0.064 nM. Besides, at PD-1/PD-L1 interaction, the concentration giving a half-maximal response (EC50) was determined as 27 nM. Further, the concentration at half-maximal activity (AC50) at PD-L1 amounted to 34.8 nM.

As for `COc1cc(-c2cccc(-c3cccc(-c4ccc(CNC[C@@H]5CCC(=O)N5)c(OC)c4)c3Br)c2Br)ccc1CNC[C@@H]1CCC(=O)N1` [Example 477], the half-inhibitory concentration (IC50) on PD-1/PD-L1 amounted to 1.04 nM. Besides, on PD-1/PD-L1 interaction, the EC50 turned out to be 179 nM. Moreover, the AC50 on PD-L1 was 360 nM.

For `COc1nc(-c2cccc(-c3cccc(COc4nc(OCc5cncc(C#N)c5)c(CN[C@@](C)(CO)C(=O)O)cc4Br)c3Cl)c2Cl)ccc1C1=NCCN1` [Example 559], the 50% inhibitory concentration (IC50) on PD-1/PD-L1 came out at 0.064 nM. Further, at PD-1/PD-L1 interaction, the EC50 was determined as 53 nM. The AC50 on PD-L1 worked out at 18.7 nM.

On to `COc1nc(O[C@H]2CCc3c(-c4cccc(-c5ccc(CNC[C@@H]6CCC(=O)N6)cc5)c4Cl)cccc32)c(Cl)cc1CN1CC(C(=O)O)C1` [Example 721], for which the half-maximal inhibitory concentration (IC50) on PD-1/PD-L1 came out at 0.064 nM. Further, at PD-1/PD-L1 interaction, the 50% effective concentration (EC50) came out at 14 nM. For the same compound, the AC50 on PD-L1 was 19 nM.

In the case of `COc1nc(O[C@H]2CCc3c(-c4cccc(-c5ccc(CNC[C@@H]6CCC(=O)N6)c(OCC#N)c5)c4Cl)cccc32)c(Cl)cc1CNC[C@@H](O)CC(=O)O` [Example 654], the half-maximal inhibitory concentration (IC50) at PD-1/PD-L1 was 0.09 nM. Besides, the EC50 on PD-1/PD-L1 interaction turned out to be 27 nM. Also, the AC50 on PD-L1 stood at 10.9 nM.

With `CS(=O)(=O)c1cncc(COc2nc(OCc3cccc(-c4cccc(-c5ccc6c(c5)C[C@@H](N)C6)c4Cl)c3Cl)c(Br)cc2CNC[C@@H](O)CC(=O)O)c1` [Example 546], the half-inhibitory concentration (IC50) on PD-1/PD-L1 amounted to 0.515 nM. Besides, the EC50 at PD-1/PD-L1 interaction amounted to 109 nM. For the same compound, at PD-L1, the half-maximal activity concentration (AC50) came out at 39.2 nM.

Turning to `Cc1c(COc2cc(OCc3cncc(C#N)c3)c(CNC[C@@H](O)CC(=O)O)cc2Cl)cccc1-c1cccc(-c2ccc(CNC[C@@H](O)CC(=O)O)cc2)c1C` [Example 384, (S)-4-((4-((4″-((((S)-3-carboxy-2-hydroxypropyl)amino)methyl)-2,2′-dimethyl-[1,1′:3′,1″-terphenyl]-3-yl)methoxy)-5-chloro-2-((5-cyanopyridin-3-yl)methoxy)benzyl)amino)-3-hydroxybutanoic acid], on PD-1/PD-L1, the half-inhibitory concentration (IC50) came to 0.112 nM. Moreover, the EC50 on PD-1/PD-L1 interaction was 154 nM. Besides, the concentration at half-maximal activity (AC50) at PD-L1 was found to be 154 nM.

As for `Cc1c(COc2cc(OCc3cncc(C#N)c3)c(CNC[C@@H](O)CC(=O)O)cc2Cl)cccc1-c1cccc(-c2ccc(OCCNC[C@@H](O)CC(=O)O)c(C(N)=O)c2)c1C` [Example 312, (S)-4-((2-((3-carbamoyl-3″-((4-((((S)-3-carboxy-2-hydroxypropyl)amino)methyl)-2-chloro-5-((5-cyanopyridin-3-yl)methoxy)phenoxy)methyl)-2′,2″-dimethyl-[1,1′:3′,1″-terphenyl]-4-yl)oxy)ethyl)amino)-3-hydroxybutanoic acid], the half-inhibitory concentration (IC50) on PD-1/PD-L1 is 0.051 nM. For the same compound, the EC50 at PD-1/PD-L1 interaction was 97 nM. In addition, the half-maximal activity concentration (AC50) on PD-L1 is 144 nM.

Take `COc1nc(-c2cccc(-c3cccc(-c4ccn5cc(CNC[C@@H]6CCC(=O)N6)nc5c4)c3Cl)c2Cl)ccc1CNC[C@@H]1CCC(=O)N1` [Example 619]: the IC50 at PD-1/PD-L1 worked out at 0.159 nM. Also, the half-maximal effective concentration (EC50) on PD-1/PD-L1 interaction turned out to be 187 nM. Moreover, the AC50 at PD-L1 worked out at 118 nM.

With `COc1nc(-c2cccc(-c3cccc4c3CC[C@@H]4Oc3nc(OC)c(CNC[C@@H](O)CC(=O)O)cc3Cl)c2Cl)ccc1CNC[C@@H]1CCC(=O)N1` [Example 728], the IC50 on PD-1/PD-L1 was 0.064 nM. In addition, on PD-1/PD-L1 interaction, the EC50 came out at 25 nM. Further, the half-maximal activity concentration (AC50) on PD-L1 came to 15 nM.

Regarding `COc1nc(O[C@H]2CCc3c(-c4cccc(-c5ccc(CNC[C@@H]6CCC(=O)N6)c(OCC#N)n5)c4Cl)cccc32)c(Cl)cc1CN[C@@H]1CCC[C@@H]1O` [Example 651], the IC50 on PD-1/PD-L1 is 0.297 nM. The EC50 at PD-1/PD-L1 interaction is 41 nM. The half-maximal activity concentration (AC50) at PD-L1 stood at 29.5 nM.

For `C[C@@](CO)(NCc1cc(Cl)c(O[C@H]2CCc3c(-c4cccc(-c5ccc(OCCN6CC[C@@H](O)C6)cc5)c4Cl)cccc32)nc1OCc1cncc(C#N)c1)C(=O)O` [Example 668], on PD-1/PD-L1, the concentration for half-maximal inhibition (IC50) amounted to 0.064 nM. Further, the EC50 on PD-1/PD-L1 interaction was 886 nM. Besides, at PD-L1, the AC50 came to 16.5 nM.

With `Cc1c(COc2cc(OCc3cncc(C#N)c3)c(CN[C@@](C)(CO)C(=O)O)cc2Cl)cccc1-c1cccc(-c2nnc(CCN3CC[C@@H](O)C3)o2)c1C` [Example 453], the IC50 on PD-1/PD-L1 is 0.111 nM. Also, the EC50 on PD-1/PD-L1 interaction worked out at 895 nM. Moreover, the AC50 at PD-L1 is 326 nM.

With `Cc1c(COc2cc(OCc3cncc(C#N)c3)c(CNC[C@@H](O)CC(=O)O)cc2Cl)cccc1-c1cccc(-c2ccc3c(c2)CCC3N(C)C)c1C` (stereo partly drawn) [Example 381, (3S)-4-((5-chloro-2-((5-cyanopyridin-3-yl)methoxy)-4-((3′-(1-(dimethylamino)-2,3-dihydro-1H-inden-5-yl)-2,2′-dimethyl-[1,1′-biphenyl]-3-yl)methoxy)benzyl)amino)-3-hydroxybutanoic acid], the half-maximal inhibitory concentration (IC50) at PD-1/PD-L1 came to 0.158 nM. Moreover, on PD-1/PD-L1 interaction, the concentration giving a half-maximal response (EC50) came to 219 nM. Further, the AC50 at PD-L1 was found to be 144 nM.

Take `COc1nc(O[C@H]2CCc3c(-c4cccc(-c5cnc(CNC[C@H]6C[C@H](O)C6)c(OC)n5)c4Cl)cccc32)c(Cl)cc1CN1CC[C@H](C(=O)O)C1` [Example 711]: at PD-1/PD-L1, the IC50 is 0.069 nM. Further, at PD-1/PD-L1 interaction, the concentration giving a half-maximal response (EC50) came to 69 nM. For the same compound, on PD-L1, the half-maximal activity concentration (AC50) amounted to 103 nM.

Take `Cc1c(COc2cc(OCc3cncc(C#N)c3)c(CNC[C@@H](O)CC(=O)O)cc2Cl)cccc1-c1cccc(-c2ccc3c(CNC[C@@H](O)CC(=O)O)cccc3c2)c1C` [Example 293, (S)-4-(((6-(3′-((4-((((S)-3-carboxy-2-hydroxypropyl)amino)methyl)-2-chloro-5-((5-cyanopyridin-3-yl)methoxy)phenoxy)methyl)-2,2′-dimethyl-[1,1′-biphenyl]-3-yl)naphthalen-1-yl)methyl)amino)-3-hydroxybutanoic acid]: on PD-1/PD-L1, the IC50 was 0.226 nM. Besides, the concentration for a half-maximal effect (EC50) at PD-1/PD-L1 interaction was found to be 73 nM. Also, the AC50 at PD-L1 amounted to 125 nM.

Consider `COc1cc(-c2cccc(-c3cccc(-c4ccc(CNC[C@@H](O)CC(=O)O)c(OC)c4)c3C)c2C)ccc1CNC[C@@H](O)CC(=O)O` [Example 317, (3S,3′S)-4,4′-(((3,3′″-dimethoxy-2′,2″-dimethyl-[1,1′:3′,1″:3″,1′″-quaterphenyl]-4,4′″-diyl)bis(methylene))bis(azanediyl))bis(3-hydroxybutanoic acid)], for which the IC50 at PD-1/PD-L1 came to 0.577 nM. Moreover, on PD-1/PD-L1 interaction, the EC50 came out at 1100 nM. Also, the concentration at half-maximal activity (AC50) at PD-L1 was found to be 1180 nM.

`Cc1c(COc2cc(OCc3cncc(C#N)c3)c(CN[C@@](C)(CO)C(=O)O)cc2Cl)cccc1-c1cccc(-c2cnc3c(Cl)cc(CN[C@@](C)(CO)C(=O)O)cc3c2)c1C` [Example 296, (S)-2-(((3-(3′-((4-((((S)-2-carboxy-1-hydroxypropan-2-yl)amino)methyl)-2-chloro-5-((5-cyanopyridin-3-yl)methoxy)phenoxy)methyl)-2,2′-dimethyl-[1,1′-biphenyl]-3-yl)-8-chloroquinolin-6-yl)methyl)amino)-3-hydroxy-2-methylpropanoic acid]: the IC50 on PD-1/PD-L1 was determined as 0.064 nM. Besides, the EC50 on PD-1/PD-L1 interaction was determined as 844 nM. The AC50 at PD-L1 is 108 nM.

Take `COc1nc(-c2cccc(-c3cccc(OCc4ccc(CNC[C@@H]5CCC(=O)N5)cc4)c3Cl)c2Cl)ccc1CNC[C@@H]1CCC(=O)N1` [Example 426]: the concentration for half-maximal inhibition (IC50) on PD-1/PD-L1 is 0.397 nM. Further, the EC50 on PD-1/PD-L1 interaction was found to be 634 nM. Further, at PD-L1, the AC50 came out at 408 nM.

As for `Cn1cc(CN2CC3(CCC(=O)N3)C2)c2ncc(-c3cccc(-c4cccc(-c5cnc6c(CN7CC8(CCC(=O)N8)C7)cn(C)c6n5)c4Cl)c3Cl)nc21` [Example 589], the IC50 at PD-1/PD-L1 worked out at 0.163 nM. For the same compound, at PD-1/PD-L1 interaction, the EC50 was found to be 89 nM. Further, the AC50 at PD-L1 turned out to be 164 nM.

Take `Cc1c(COc2cc(OCc3cncc(C#N)c3)c(CNC[C@@H](O)CC(=O)O)cc2Cl)cccc1-c1cccc(-c2ccc3c(c2)CC(NCCO)C3)c1C` (stereo partly drawn) [Example 473]: the 50% inhibitory concentration (IC50) at PD-1/PD-L1 was found to be 0.159 nM. Also, the concentration giving a half-maximal response (EC50) at PD-1/PD-L1 interaction stood at 86 nM. The concentration at half-maximal activity (AC50) on PD-L1 was 76.8 nM.

As for `Cc1c(COc2cc(OCc3cncc(C#N)c3)c(CN[C@@](C)(CO)C(=O)O)cc2Cl)cccc1-c1cccc(-c2ccc(C3CCNC3)cc2)c1C` (stereo partly drawn) [Example 342, (S)-2-((5-chloro-2-((5-cyanopyridin-3-yl)methoxy)-4-((2,2′-dimethyl-4″-((R)-pyrrolidin-3-yl)-[1,1′:3′,1″-terphenyl]-3-yl)methoxy)benzyl)amino)-3-hydroxy-2-methylpropanoic acid and(S)-2-((5-chloro-2-((5-cyanopyridin-3-yl)methoxy)-4-((2,2′-dimethyl-4″-((S)-pyrrolidin-3-yl)-[1,1′:3′,1″-terphenyl]-3-yl)methoxy)benzyl)amino)-3-hydroxy-2-methylpropanoic], the IC50 at PD-1/PD-L1 came to 0.4 nM. Besides, the half-maximal effective concentration (EC50) at PD-1/PD-L1 interaction is 447 nM. At PD-L1, the AC50 was 118 nM.
